How the values were obtained:
[1] = target: T1, transfected human CB2 receptors (Homo sapiens, UniProt P34972); assay: In-vitro determination of affinity to CB2 receptor (radioligand [3H]-CP55940); type: binding
T1 construct: purchased Receptor Biology, Inc
Method: (§1) I. In-vitro determination of affinity to CB1/CB2-Receptors
(§2) The in-vitro determination of the affinity of the inventive substituted pyrazoline compounds to CB1/CB2-Rezeptors is carried out as described in the publication of Ruth A. Ross, Heather C. Brockie et al., "Agonist-inverse agonist characterization at CB1 and CB2 cannabinoid receptors of L-759633, L759656 and AM630", British Journal of Pharmacology, 126, 665-672, (1999), whereby the transfected human CB1 and CB2 receptors of Receptor Biology, Inc. are used. The radioligand used for both receptors is [^3H]-CP55940. The respective parts of the description is hereby incorporated by reference and forms part of the present disclosure.

cannabinoid receptors [2] = assay: Mouse tetrad model, antagonistic effect against Win 55212-2; type: in vivo, Male NMRI mice; settings: 5 mg/kg i.v. prior to Win 55212-2 in a dose of 1,25mg/kg i.v.
Text: (§3) Substances with affinity for cannabinoid receptors are known to produce a wide range of pharmacological effects. It is also known that intravenous administration of a substance with affinity for cannabinoid receptors in mice produces analgesia , hypothermia, sedation and catalepsy. Individually, none of these effects can be considered as proof that a tested substance has affinity for cannabinoid-receptors, since all of these effects are common for various classes of centrally active agents. However, substances, which show all of these effects, i.e. substances that are active in this so-called tetrad model are considered to have affinity for the cannabinoid receptors. It has further been shown that cannabinoid receptor antagonists are higly effective in blocking the effects of a cannabinoid agonist in the mouse tetrad model.
(§4) The tetrad model is described, for example, in the publication of A. C. Howlett et al, International Union of Pharmacology XXVII. Classification of Cannabinoid Receptors, Pharmacol Rev 54, 161-202 , 2002 and David R. Compton et al., "In-vivo Characterization of a Specific Cannabinoid Receptor Antagonist (SR141716A) :Inhibition of Tetrahydrocannbinol- induced Responses and Apparent Agonist Activity", J. Pharmacol. Exp. Ther. 277 , 2, 586-594, 1996. The corresponding parts of the description are hereby incorporated by reference.
(§5) Male NMRI mice with a weight of 20-30 g (Harlan, Barcelona, Spain) are used in all of the following experiments.
(§6) Before testing in the behavioral procedures given below, mice are acclimatized to the experimental setting. Pre-Treatment control values are determined for analgesia hot plate latency (in seconds), rectal temperature, sedation and catalepsy.
(§7) In order to determine the agonistic activty of the substance to be tested, the mice are injected intravenously with the substance to be tested or the vehicle alone. 15 minutes after injection, latency in hot plate analgesia is measured.
(§8) Rectal temperature, sedation and catalepsy are measured 20 minutes after injection.
In order to determine the antagonistic activity the identical procedure is used as for the determination of the agonistic effects, but with the difference that the substance to be evaluated for its antagonistic activity is injectected 5 minutes before the intravenous injection of 1.25 mg/kg Win-55,212 a known cannabinoid-receptor agonist.
(§9) The hot plate analgesia is determined according to the method described in Woolfe D. et al. "The evaluation of analgesic action of pethidine hydrochloride (Demerol)", J. Pharmacol. Exp. Ther. 80, 300-307,1944. The respective description is hereby incorporated by reference and forms part of the present disclosure.
(§10) The mice are placed on a hot plate (Harvard Analgesimeter) at 55 ± 0.5 °C until they show a painful sensation by licking their paws or jumping and the time for these sensations to occur is recorded. This reading is considered the basal value (B). The maximum time limit the mice are allowed to remain on the hot plate in absence of any painful response is 40 seconds in order to prevent skin damage. This period is called the cut-off time (PC).
(§11) Fifteen minuts after the administration of the substance to be tested, the mice are again placed on the hot plate and the afore described procedure is repeated. This period is called the post-treatment reading (PT).
(§12) The degree of analgesia is calculated from the formula : %MPEof Analgesia = (PT−B)/(PC−B) × 100 [formula] MPE = Maximum possible effect.
(§13) Sedation and ataxia is determined according to the method described in Desmet L. K. C. et al. "Anticonvulsive properties of Cinarizine and Flunarizine in Rats and Mice", Arzneim. -Forsch. (Frug Res) 25, 9, 1975. The respective description is hereby incorporated by reference and forms part of the present disclosure.
The chosen scoring system is • 0: no ataxia; • 1: doubful; • 2: obvious calmness and quiet; • 3 pronounced ataxia; • prior to as well as after treatment. […]

cannabinoid receptors [3] = assay: Mouse tetrad model, agonistic effect; type: in vivo, Male NMRI mice; set-up: key to Agonistic effect D: Sedation: % of sedation = mean score (0–3 scale)/3 × 100; settings: 5 mg/kg i.v.
Text: as §3, §4, §5, §6, §7, §8, §9, §10, §11, §12, §13
The chosen scoring system is • 0: no ataxia; • 1: doubful; • 2: obvious calmness and quiet; • 3 pronounced ataxia; • prior to as well as after treatment.
The percentage of sedation is determined according to the formula: %of sedation = arithmetic mean/3 × 100 [formula] […]

[4] = In-vivo testing for regulation of triglycerides in blood, obese mice on high fat diet (study V); set-up: species or system male mice B6 Lep ob/ob; settings: 30 mg/kg/day po, 14 days
Text: The study was done using six weeks old male mice B6 Lep ob/ob, obtained from Charles River (France). Mice were divided in 3 groups : I (control), II (vehicle), III (example 0).
The animals of the group I received the standard diet (D-12450B, Research Diets, NJ, USA).
The animals of the groups II and III were fed with a High Fat Diet (D-12492, Research Diets, NJ, USA), in both cases for 7 weeks (References 1 and 2).
The animals of the groups III were fed with a High Fat Diet (D-12492, Research Diets, NJ, USA), in both cases for 7 weeks (References 1 and 2).
At the end of the feeding period of 7 weeks, it was started the treatment period (14 days): Group II mice received the vehicle (10 ml/kg/day, po, of the aqueous solution of acacia gum, 5% W/V). Group III was administered with 30 mg/kg/day, po, of the inventive compound 5-(4-chlorophenyl)-1-(2,4-dichlorophenyl)-4,5-dihydro-pyrazole-3-carboxylic acid according to Example 0. Group I didn't received any treatment. The three groups of mice had the same diet than in the previous period.
At the end of the 14 days period of treatment, the blood levels of triglicerides of the animals were determined. […]

[5] = In-vivo testing for regulation of triglycerides in blood, diet-induced obese mice (study VI); settings: high fat diet, 30 mg/kg/day p.o., day 28 after beginning of the treatment; p<0.005 vs. vehicle
Method: In a second set of experiments carried out similar to the tests shown above the TG (triglyceride) levels of diet-induced obese mice in blood were determined. Mice receiving a high fat diet were - after a feeding period of […] - either treated p.o. with vehicle (0,5 % HPMC) or with the compound according to example 0 (30 mg/kg/day p.o.). TG levels in blood were determined on day 28 after beginning of the treatment.

[6] = target: T2, transfected human CB1 receptors (Homo sapiens, UniProt P21554); assay: In-vitro determination of affinity to CB1 receptor (radioligand [3H]-CP55940); type: binding
T2 construct: purchased Receptor Biology, Inc
T2 sequence (P21554 whole entry): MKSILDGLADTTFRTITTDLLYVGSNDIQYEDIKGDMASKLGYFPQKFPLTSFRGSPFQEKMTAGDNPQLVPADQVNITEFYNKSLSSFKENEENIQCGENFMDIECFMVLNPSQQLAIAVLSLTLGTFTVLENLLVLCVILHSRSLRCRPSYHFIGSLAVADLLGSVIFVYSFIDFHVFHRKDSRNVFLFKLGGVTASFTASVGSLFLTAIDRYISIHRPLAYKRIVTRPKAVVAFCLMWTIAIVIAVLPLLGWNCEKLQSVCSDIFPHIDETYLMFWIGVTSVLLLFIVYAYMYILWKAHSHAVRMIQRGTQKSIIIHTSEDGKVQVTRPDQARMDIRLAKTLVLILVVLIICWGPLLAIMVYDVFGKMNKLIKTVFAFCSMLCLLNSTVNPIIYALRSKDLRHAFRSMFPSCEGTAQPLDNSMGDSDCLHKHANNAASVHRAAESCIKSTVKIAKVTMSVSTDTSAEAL
Method: as §1, §2

T1 sequence (P34972 whole entry): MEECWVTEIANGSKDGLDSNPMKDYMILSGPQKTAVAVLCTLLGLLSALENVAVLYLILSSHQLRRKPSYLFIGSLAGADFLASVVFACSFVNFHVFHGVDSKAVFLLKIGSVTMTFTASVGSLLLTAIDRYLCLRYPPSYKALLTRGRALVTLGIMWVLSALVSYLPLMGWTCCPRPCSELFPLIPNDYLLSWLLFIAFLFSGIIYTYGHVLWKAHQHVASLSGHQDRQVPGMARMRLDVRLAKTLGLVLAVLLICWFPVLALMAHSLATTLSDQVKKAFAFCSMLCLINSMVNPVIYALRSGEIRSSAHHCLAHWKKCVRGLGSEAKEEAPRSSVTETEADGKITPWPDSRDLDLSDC

Structure (SMILES) | Ki [1] | Antagonistic Effect A: Hot-Plate test (cannabinoid receptors [2]) | Antagonistic Effect B: Hypothermia (cannabinoid receptors [2]) | Antagonistic Effect C: Catalepsy (cannabinoid receptors [2]) | Antagonistic Effect D: Sedation (cannabinoid receptors [2]) | Agonistic effect A: Hot-Plate test (cannabinoid receptors [3]) | Agonistic effect B: Hypothermia (cannabinoid receptors [3]) | Agonistic effect C: Catalepsy (cannabinoid receptors [3]) | Agonistic effect D: Sedation (cannabinoid receptors [3]) | Triglicerides, whole blood levels (mg/dl) ([4]; N.S. compared with Group I) | Relative levels ([4]; triglicerides relative to Group I (standard diet = 100%)) | TG (triglyceride) levels [5] | Ki [6]
O=C(C1=NN(c2ccc(Cl)cc2Cl)C(c2ccc(Cl)cc2)C1)N1CCCCC1 (stereo not shown) [Example 5, [5-(4-Chloro-phenyl)-1-(2,4-dichloro-phenyl)-4,5-dihydro-1H-pyrazol-3-yl]-piperidin-1-yl-methanone] | ~1 µM | 50 | 40 | 20 | 20 | 0 | 50 | 0 | 0 | – | – | – | –
O=C(O)C1=NN(c2ccc(Cl)cc2Cl)C(c2ccc(Cl)cc2)C1 (stereo not shown) [Example 0, 5-(4-chlorophenyl)-1-(2,4-dichlorophenyl)-4,5-dihydro-pyrazole-3-carboxylic acid] | – | – | – | – | – | – | – | – | – | 67.5 (N.S.) mg/dl | 110.6% | 0.80 ± 0.07 mmol/L | –
O=C(NN1CCCCC1)C1=NN(c2ccc(Cl)cc2Cl)C(c2ccc(Cl)cc2)C1 (stereo not shown) [Example 1, N-piperidinyl-5-(4-chlorophenyl)-1-(2,4-dichlorophenyl)-4,5-dihydro-1H-pyrazole-3-carboxamide] | > 1 µM | 74 | 100 | 100 | 100 | 0 | 0 | 0 | 0 | – | – | – | < 0.025 µM

From patent EP1743642A1 (priority 2005, dated 2007)
